Data from patent US7879898B1, “Hepatocyte growth factor pathway activators in chronic obstructive pulmonary disease” (Angion Biomedica Corp., priority 2006, dated 2011).

What was measured:
[1] = system: bovine pulmonary endothelial cells (bPAEC); experiment: 3H-thymidine incorporation cell proliferation assay in bPAEC combined with c-Met siRNA; type: cell-based; conditions: serial dilutions of 5-((E)-2-thiophen-2-yl-vinyl)-1H-pyrazole or HGF; with c-Met siRNA knockdown; FIG. 1B-C
Method: Compounds promote proliferation of pulmonary endothelial cells specifically through c-Met. Proliferation of pulmonary endothelial cells is one of the important pulmotrophic activities of HGF. […] First, a c-Met siRNA was used with a lipo-transfecting reagent to knock down the c-Met mRNA level in bPAEC cells, and real time RT-PCR conducted to measure the effect. The c-Met siRNA can knock down ˜90% of c-Met mRNA at a c-Met siRNA concentration as low as 50 nM. Next, the siRNA knockdown condition established from the first step was used to decrease >=90% of c-Met mRNA in bPAEC by using 100 nM of the c-Met siRNA pool, and subsequently ^3H-thymidine incorporation assay was performed in the bPAEC cells.
Shown in FIG. 1B-C, ˜5,000/well bPAEC were plated in 96 well plates. The steps as described above were continued until 24 h after adding the mixture of siRNAs and lipofectamine. Then the medium was changed with the fresh mixture of siRNAs and lipofectamine containing serial dilutions of the compound 5-((E)-2-thiophen-2-yl-vinyl)-1H-pyrazole or HGF, incubated another 24 h, 100 ul of ^3H-thymidine(1uCi/ml) was added and incubation continued overnight. Then, 100 ul/well Trypsin/EDTA was added, and ^3H-thymidine incorporation analysis was conducted using an auto-harvester and Topcount NXT v2.12 instrument.

[2] = system: bovine pulmonary endothelial cells (bPAEC); experiment: CytoSelect 24-well cell migration assay of bPAEC; type: cell-based; conditions: 24 h; multiple concentrations; FIG. 2
Method: Another important pulmotrophic activity of HGF is to stimulate migration of pulmonary endothelial cells. Again, bPAEC cells were used to test if test compound, like HGF, can stimulate migration of the cells. The CytoSelect 24-well cell migration assay (Cell Biolabs, Inc.) was used to measure the migration of bPAEC cells according to the kit manual.
CytoSelect 24-well cell migration assay kit (Cell Biolabs, Inc.) was used. Briefly, ˜300,000 cells/chamber were seeded in serum-free medium and put into a larger well containing medium with no-serum (C), serum, HGF, compound at multiple concentrations (see above), respectively, and incubated for 24 h. The medium was then aspirated from the chamber and then carefully and completely, the cells on the inner surface of the membrane were removed with cotton and the membrane washed twice. The migrated cells were stained and quantified by measuring OD at 560 nm. The mean values from bouble wells for each compound are shown.

Substance: HGF: hepatocyte growth factor (HGF; also known as scatter factor), acts through its receptor c-Met
- proliferation of bPAEC cells (3H-thymidine incorporation) [1]: promote proliferation of bPAEC cells specifically through HGF receptor c-Met
- migration of bPAEC cells (OD at 560 nM) [2]: stimulates bPAEC cells migration
